In patent US20090087425A1, “Combination of nitroderivatized steroid and bronchodilator for treating respiratory disease” (Topigen Pharmaceuticals Inc., priority 2007, published 2009):
Where “and” joins values, the source holds several entries; their conditions need not be identical. Equal values may be shown once. Entries after “also recorded” stand apart in the source; their conditions may differ. Read-outs that look alike come from different tables or passages of the source.

Key:
[1] = test system: bronchoconstriction induced by histamine; assay: Histamine-induced bronchoconstriction in conscious guinea-pigs, whole body plethysmography (sGaw); format: in vivo, guinea-pig; conditions: for Duration of significant reduction of AHR after treatment: TPI-1020 0.3 mg/ml, or TPI-1020 0.3 mg/ml + salbutamol 20 μg/ml
[2] = asthmatic patients, cited from earlier work
[3] = test system: bronchoconstriction induced by methacholine; assay: Methacholine-induced bronchoconstriction in conscious guinea-pigs, whole body plethysmography (sGaw); format: in vivo, guinea-pig
Procedure: Groups of six male Dunkin-Hartley guinea-pigs, weighing 350-450 g were used throughout. Animals received food and water ad libitum and lighting was maintained in the room (22+/−2° C.) on a 12 h cycle. This work complied with the guidelines for the care and use of laboratory animals according to the Animals (Scientific Procedures) Act 1986.
Whole body plethysmography of the conscious guinea-pig was used to monitor airway function, recorded as specific airways conductance (sGaw). The method was as described by Griffiths-Johnson et al. (J. Pharmacol. Meth. 1988; 11:233-240), although a computerized data acquisition system replaced the original oscilloscope and angle resolver (Danahay et al. Clin. Exp. Allergy 1997; 28:513-522). Animals were fitted with a face mask and placed in a restrainer which was then slid into the plethysmograph chamber. The computer ran AcqKnowledge software using a Biopack data acquisition system. This system was capable of acquiring and storing data referring to the air across a pneumotachograph (Mercury FIL) as the animal breathed. The resulting change in box volume (pressure) was simultaneously measured.
Changes in air flow and box pressure were measured using UP1 and UP2 pressure transducers, respectively. The resulting waveforms could then be rapidly analysed by comparing the gradients of the flow and the box pressure waves at a point where flow tended towards zero, i.e. end tidal flow. A function of these two parameters, allowing for air pressure and the weight of the animal, gave the resulting value for specific airway conductance (sGaw). A minimum of five breaths were analysed for each animal at each time point to arrive at a mean value, which is the reported value.
In the experimental examples described herein, the reported values for sGaw measurements were taken following histamine or […] without treatment. This pre-treatment sGaw value measured after histamine or methacholine challenge, by convention, determined 100% bronchoconstriction for the animal. Following treatment with the experimental agents, including agents which are part of the subject invention, sGaw values (level of bronchoconstriction) were reported as a percentage of the pre-treatment value. Thus, a 10% post-treatment sGaw value, as compared to the 100% pre-treatment sGaw, is a 90% reduction in bronchoconstriction, or 90% reduction of airway hyperresponse (AHR). A 20% post-treatment sGaw value corresponds to an 80% reduction in bronchoconstriction or AHR. Thus, the lower the post-treatment sGaw value, the better the reduction of bronchoconstriction and AHR. For purposes of the subject invention, the more desired response is a lower sGaw value (less histamine- or methacholine-induced bronchoconstriction, and less AHR).
All drugs or vehicle were delivered as a whole body exposure chamber. […]
Tiotropium is an antimuscarinic or anticholinergic bronchodilator, different from the beta-agonist bronchodilators, such as salbutamol, described above. Baseline readings were taken on Day 1 prior to treatment (Pre-treatment) to determine 100% bronchoconstriction or AHR induced by methacholine. Recordings of sGaw were made at 0, 5 and 10 minutes after the […] (Post-treatment). The sGaw values of Day 3 are expressed as a percentage of Day 1 sGaw values following methacholine challenge (Pre-treatment), which is by definition set at 100%. Each point represents the mean+/−S.E.M. (n=6). Statistical significance was determined for p<0.05 using Student's paired t-test.
On Day 3, animals were treated with vehicle, alone, or with 1.0, 3.0, or 10.0 ug/ml of tiotropium. […] A dose of 0.1 µg/ml of tiotropium provided less than 40% reduction of AHR.

muscarinic receptors = conditions: cited from earlier work
[4] = test system: recruitment of inflammatory cells (neutrophils); conditions: cited from earlier work
[5] = FIG. 1B, budesonide 0.44 mg/ml, equimolar to 0.63 mg/ml TPI-1020
[6] = FIG. 2B, budesonide 0.44 mg/ml, equimolar to 0.63 mg/ml TPI-1020
[7] = FIG. 3, salbutamol 30 μg/ml, 30 mins before histamine
[8] = FIG. 3, salbutamol 30 μg/ml, 60 mins before histamine
[9] = FIG. 3, salbutamol 30 μg/ml, 90 mins before histamine
[10] = FIG. 2D, TPI-1020 0.11 mMl (0.1 mg/ml in text)
[11] = FIG. 3, TPI-1020 0.3 mg/ml, 30 mins before histamine
[12] = FIG. 3, TPI-1020 0.3 mg/ml, 60 mins before histamine
[13] = FIG. 3, TPI-1020 0.3 mg/ml, 90 mins before histamine

## CC(=O)N[C@H](C(=O)O)C(C)(C)SN=O (racemic) [SNAP, S-nitroso-N-acetylpenicillamine]
[1]; FIG. 2C, SNAP 0.15 mg/ml
  % Inhibition: 20% and 19%
  Post-treatment (% sGaw): −81.2 % sGaw
[1]; FIG. 2C, SNAP 0.31 mg/ml
  % Inhibition: 47%
  Post-treatment (% sGaw): −52.6 % sGaw
[1]; FIG. 2D, SNAP 0.7 mM
  % Inhibition: 19%
  Post-treatment (% sGaw): −81.2 % sGaw

## CCCC1O[C@@H]2C[C@H]3[C@@H]4CCC5=CC(=O)C=C[C@]5(C)[C@H]4[C@@H](O)C[C@]3(C)[C@]2(C(=O)CO)O1 (stereo partly drawn) [Budesonide, budesonide]
[1]; [5]
  % Inhibition: 35%
  Post-treatment (% sGaw): −65.2 % sGaw
[1]; [6]
  % Inhibition: 35%
  Post-treatment (% sGaw): −65.2 % sGaw
[1]; FIG. 2B, budesonide 0.44 mg/ml, equimolar to 0.63 mg/ml TPI-1020, listed as budesonide
  % Inhibition: 40%
[1]; FIG. 2D, budesonide 0.11 mM
  % Inhibition: 18%
  Post-treatment (% sGaw): −81.8 % sGaw

## COc1ccc(CC(C)NCC(O)c2ccc(O)c(NC=O)c2)cc1 (stereo not drawn) [Formoterol, formoterol]
[2]; dose 6 μg
  Duration of bronchodilation: 8 h
[2]; dose 12 μg
  Duration of bronchodilation: 10 h
[2]; dose 24 μg
  Duration of bronchodilation: 12 h

## CC(C)(C)NCC(O)c1ccc(O)c(CO)c1 (stereo not drawn) [Salbutamol, salbutamol]
[1]; FIG. 1C, salbutamol 3 μg/ml
  % Inhibition: 12%
  Post-treatment (% sGaw): −87.6 % sGaw
[1]; FIG. 1C, salbutamol 3 μg/ml, listed as salbutamol
  % Inhibition: no significant inhibition effect
[1]; FIG. 1C, salbutamol 10 μg/ml
  % Inhibition: 3%
  Post-treatment (% sGaw): −96.7 % sGaw
[1]; FIG. 1C, salbutamol 10 μg/ml, listed as salbutamol
  % Inhibition: no significant inhibition effect
[1]; FIG. 1C, salbutamol 20 μg/ml
  % Inhibition: 20%
  Post-treatment (% sGaw): −80.1 % sGaw
[1]; FIG. 1C, salbutamol 30 μg/ml
  % Inhibition: 84%
  Post-treatment (% sGaw): −15.6 % sGaw
[1]; FIG. 1C, salbutamol 30 μg/ml, listed as salbutamol
  % Inhibition: 85%
[1]; FIG. 2D, salbutamol 20 μg/ml
  % Inhibition: 11%
  Post-treatment (% sGaw): −89.0 % sGaw
[1]; FIG. 2D, salbutamol 20 μg/ml, listed as salbutamol
  % Inhibition: insignificant reduction of AHR; also recorded: do not significantly reduce AHR
[1]; [7]
  % Inhibition: 84%
  Post-treatment (% sGaw): −15.6 % sGaw
[1]; [8]
  % Inhibition: 47%
  Post-treatment (% sGaw): −52.7 % sGaw
[1]; [9]
  % Inhibition: 9%
  Post-treatment (% sGaw): −91.4 % sGaw
[1]; FIG. 3, salbutamol 30 μg/ml
  Duration of significant reduction of AHR after treatment: 60 min

## C[N+]1(C)[C@@H]2C[C@@H](OC(=O)C(O)(c3cccs3)c3cccs3)C[C@H]1[C@@H]1O[C@@H]12 [Tiotropium, tiotropium]
[3]; FIG. 5A, tiotropium 1 μg/ml
  % Inhibition: 35%
  Post-treatment (% sGaw): −65.2 % sGaw
[3]; FIG. 5A, tiotropium 3 μg/ml
  % Inhibition: 73%
  Post-treatment (% sGaw): −26.7 % sGaw
[3]; FIG. 5A, tiotropium 3 μg/ml, listed as tiotropium
  % Inhibition: about 75%
[3]; FIG. 5A, tiotropium 10 μg/ml
  % Inhibition: ~85%
  Post-treatment (% sGaw): −14.9 % sGaw
[3]; FIG. 5C, tiotropium 1 μg/ml
  % Inhibition: 35%
  Post-treatment (% sGaw): −65.2 % sGaw
Muscarinic receptors
  Selectivity for specific muscarinic receptors: does not display selectivity for specific muscarinic receptors

## budesonide 21-(4′-nitrooxymethyl)benzoate [TPI-1020]
[3]; FIG. 5B, TPI-1020 0.1 mg/ml, 30 mins before methacholine
  Post-treatment (% sGaw): −94.0 % sGaw
[3]; FIG. 5B, TPI-1020 0.1 mg/ml, 90 mins before methacholine
  Post-treatment (% sGaw): −86.9 % sGaw
[3]; FIG. 5B, TPI-1020 0.3 mg/ml, 30 mins before methacholine
  Post-treatment (% sGaw): −18.4 % sGaw
[3]; FIG. 5B, TPI-1020 0.3 mg/ml, 90 mins before methacholine
  Post-treatment (% sGaw): −65.3 % sGaw
[3]; FIG. 5C, TPI-1020 0.1 mg/ml
  Post-treatment (% sGaw): −86.9 % sGaw
[1]; FIG. 1A, TPI-1020 0.1 mg/ml inhaled 15 min before 3 mM histamine
  % Inhibition: 20% and 21%
[1]; FIG. 1A, TPI-1020 0.3 mg/ml
  % Inhibition: 48%
[1]; FIG. 1A, TPI-1020 0.63 mg/ml
  % Inhibition: 95%
[1]; FIG. 2A, TPI-1020 0.1 mg/ml
  Post-treatment (% sGaw): −83.2 % sGaw
[1]; FIG. 2A, TPI-1020 0.3 mg/ml
  % Inhibition: 48% and 50%
  Post-treatment (% sGaw): −49.5 % sGaw
[1]; FIG. 2A, TPI-1020 0.63 mg/ml
  % Inhibition: 80% and 72%
  Post-treatment (% sGaw): −27.9 % sGaw
[1]; [10]
  % Inhibition: insignificant reduction of AHR
  Post-treatment (% sGaw): −83.2 % sGaw
[1]; [11]
  % Inhibition: 50%
  Post-treatment (% sGaw): −49.5 % sGaw
[1]; [12]
  % Inhibition: 7%
  Post-treatment (% sGaw): −92.7 % sGaw
[1]; [13]
  % Inhibition: −20%
  Post-treatment (% sGaw): −120.1 % sGaw
[1]; FIG. 3, salbutamol 30 μg/ml
  Duration of significant reduction of AHR after treatment: 30 min
[1]; FIG. 4B, TPI-1020 0.1 mg/ml
  % Inhibition: 17%
  Post-treatment (% sGaw): −83.2 % sGaw
[1]; FIG. 4B, TPI-1020 0.3 mg/ml
  % Inhibition: −20%
  Post-treatment (% sGaw): −120.3 % sGaw
[4]; pre-clinical studies
  Release in the lung of key mediators of inflammation: significantly reduce release in the lung of key mediators of inflammation
[4]; rodent models of airway inflammation and pulmonary disease
  Recruitment of inflammatory cells (neutrophils): significantly block the recruitment of inflammatory cells (neutrophils)
